pKi: −log10 of the molar value.
Key:
5-HT reuptake sites = biological target: T1, 5-HT reuptake sites (Rattus norvegicus, UniProt P31652); assay: 5-HT uptake: displacement of [3H]citalopram from 5-HT reuptake sites, rat frontal cortical membranes; format: binding; settings: for pKi: [3H]citalopram 1.3 nM, rat frontal cortical membranes, fit to data from three experiments; for inhibition at 1 µM: 10^−6 M test compound, single determination, [3H]citalopram
T1 construct: Frontal cortical tissue from the brains of male Charles River rats; from tissue; host or cells: rat frontal cortical membranes
Protocol: Frontal cortical tissue from the brains of male Charles River rats weighing 150-250 g was homogenised in ice-cold 50 mM Tris-HCl, pH 7.4 (when measured at 25° C.) containing 120 mM sodium chloride and 5 mM potassium chloride (Tris buffer; 1:30 w/v) and centrifuged at 40,000 g for 10 minutes. The supernatant was discarded and the pellet rehomogenised in Tris buffer, 1:60 w/v, and centrifuged at 40,000 g for 10 minutes. This step was repeated a further time. The final pellet was resuspended in 50 mM Tris-HCl, pH 7.4 containing 120 mM sodium chloride and 5 mM potassium chloride (equivalent to 3.125 mg wet weight of tissue/ml) and used immediately in the binding assay. All centrifugations were performed at 4° C.
Membranes (400 μl; equivalent to 1.25 mg wet weight of tissue/tube) were incubated with 50 μl [^3H]citalopram at a single concentration of 1.3 nM and 50 μl of distilled water (total binding) or 50 μl of test compound (at a single concentration of 10^−6 M or at 10 concentrations ranging from 10^−11-10^−3 M) or 50 μl of paroxetine (0.5 μM; non-specific binding) for 1 h at 27° C. Membrane bound radioactivity was recovered by filtration under vacuum through Skatron 11734 filters presoaked in 0.5% PEI using a Skatron Cell Harvester. Filters were then washed in ice-cold 50 mM Tris-HCl buffer, pH 7.4 (at 25° C., wash setting 9,9,0). The scored filter paper discs were punched out into vials, scintillation fluid added and radioactivity determined by liquid scintillation counting.
(§1) For each of these tests measuring the ability of compounds of Formula I to displace standard ligands from 5-HT1A receptors and 5-hydroxytryptamine (5-HT) and noradrenaline (NA) reuptake sites and muscarinic receptors in vitro, the percentage displacement of specific binding of tritiated ligand by 10^−6 M test compound was calculated in the following way.
(§2) Firstly, specific binding of tritiated ligand in the absence (A) and presence (B) of test compound was determined:
(§3) In the absence of compound: A(dpm)=Total binding (dpm)−Non-specific binding (dpm) In the presence of compound (10^−6 M): B(dpm)=Binding at 10^−6M (dpm)−Non-specific binding (dpm)
(§4) The specific binding of tritiated ligand in the presence (B) of compound was then converted to a percentage of specific binding of tritiated ligand in the absence (A) of compound: % Specific binding at 10^−6 M=B(dpm)/A(dpm)×100
(§5) The percentage displacement of specific binding of tritiated ligand by the test compound (10^−6 M) was then obtained by subtraction of the percentage specific binding in the presence of compound from the percentage specific binding in the absence of compound, which is taken as the maximum binding and so equals 100%:
(§6) % Displacement at 10^−6 M=100−% Specific binding at 10^−6 M.
(§7) In some cases, displacement curves were then produced for compounds which displaced ≧50% of specific binding of the tritiated ligand at 10^−6 M using a range of concentrations of the compound. The Ki was then calculated by simultaneous fitting using equations derived from the Feldman equations by robust non-linear regression to data from three experiments simultaneously (De Lean et al., 1978; Munson and Rodbard, 1980; Feldman, 1992). Munson P J and Rodbard D. Ligand: a versatile computerised approach for characterisation of ligand binding systems. Anal Biochem 1980; 107: 220. Feldman HA. Mathematical theory of complex ligand binding systems at equilibrium: some methods for parameter fitting. Anal Biochem 1992: 48, 317. De Lean A, Munson P J and Rodbard D. Simultaneous analysis of families of sigmoidal curves: application to bioassay, radioligand assay, and physiological dose-response curves. Am J Physiol 1978: 235 (2), E97-E102.
The results obtained in the above tests for 5-HT1A binding and 5-HT and NA uptake and muscarinic binding for the final products of Examples 1-39 hereinafter are given in Table 1 below. Kis are in nM. % Figures are for % displacement at 10^−6 M for a single determination.

muscarinic receptors = assay: Muscarinic binding: displacement of [3H]N-methylscopolamine, rat frontal cortical membranes; settings: for Muscarinic % displacement at 10^−6 M: 10^−6 M test compound, single determination, [3H]N-methylscopolamine; for pKi: [3H]N-methylscopolamine 0.15 nM, rat frontal cortical membranes
Protocol: Frontal cortical tissue from the brains of male Charles River rats weighing 150-250 g was homogenised in ice-cold 20 mM HEPES buffer, pH 7.5 (measured at 25° C.) containing 100 mM sodium chloride and 10 mM magnesium chloride (1:10 w/v) using a Polytron PT3100 (speed setting 21,700 rpm, 3×5 seconds) and centrifuged at 49,500 g for 30 minutes at 4° C. The supernatant was discarded and the pellet rehomogenised in 20 mM HEPES buffer, pH 7.5 containing 100 mM sodium chloride and 10 mM magnesium chloride (equivalent to 12.5 mg wet weight of tissue/ml). Membranes were stored at −80° C. until required.
Membranes were thawed, diluted 1:10 in ice-cold 20 mM HEPES buffer, pH 7.5 containing 100 mM sodium chloride and 10 mM magnesium chloride and homogenised using a Polytron PT3100 as above. Diluted membranes (200 μl; equivalent to 0.25 mg wet weight of tissue/tube) were incubated with 200 μl of 20 mM HEPES buffer, pH 7.5 containing 100 mM sodium chloride and 10 mM magnesium chloride and 50 μl [^3H]N-methylscopolamine at a single concentration of 0.15 nM and 50 μl distilled water (total binding) or 50 μl test compound (at a single concentration of 10^−6 M or at 10 concentrations ranging from 10^−11-10^−3 M) or 50 μl atropine sulphate (1 μM; non-specific binding) for 30 min at 30° C. Membrane bound radioactivity was recovered by filtration under vacuum through Skatron 11734 filters using a Skatron cell harvester. Filters were rapidly washed with ice-cold 20 mM HEPES buffer, pH 7.5 (wash 1,2 at setting 5,5). The scored filter paper discs were punched out into vials, scintillation fluid added and radioactivity determined by liquid scintillation counting.
as §1, §2, §3, §4, §5, §6
as §7, with “E97-E102. […]” for “E97-E102.”

T1 sequence (P31652 whole entry): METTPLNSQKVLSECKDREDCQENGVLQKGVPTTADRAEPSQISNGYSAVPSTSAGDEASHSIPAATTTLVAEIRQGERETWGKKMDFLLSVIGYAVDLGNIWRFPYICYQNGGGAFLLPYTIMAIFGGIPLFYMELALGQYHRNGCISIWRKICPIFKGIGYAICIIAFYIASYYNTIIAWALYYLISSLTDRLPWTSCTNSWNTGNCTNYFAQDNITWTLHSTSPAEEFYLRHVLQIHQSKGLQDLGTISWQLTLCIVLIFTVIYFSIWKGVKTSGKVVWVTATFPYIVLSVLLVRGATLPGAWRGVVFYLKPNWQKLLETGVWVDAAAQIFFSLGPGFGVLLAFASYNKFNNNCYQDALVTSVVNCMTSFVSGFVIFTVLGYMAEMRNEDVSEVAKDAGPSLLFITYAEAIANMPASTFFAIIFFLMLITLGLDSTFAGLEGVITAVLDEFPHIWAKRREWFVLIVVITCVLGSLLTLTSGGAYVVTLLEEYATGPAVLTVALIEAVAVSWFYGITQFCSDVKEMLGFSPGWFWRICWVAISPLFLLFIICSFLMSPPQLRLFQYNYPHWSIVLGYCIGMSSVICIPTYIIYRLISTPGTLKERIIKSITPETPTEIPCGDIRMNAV

| Structure (SMILES) | pKi (5-HT reuptake sites) | Muscarinic % displacement at 10^−6 M (muscarinic receptors) [%] | melting point [°C] | inhibition at 1 µM (5-HT reuptake sites) [%] | pKi (muscarinic receptors; fumarate) | pKi (muscarinic receptors) |
| --- | --- | --- | --- | --- | --- | --- |
| CCC1=C(c2ccc3sccc3c2)N2CCN=C2S1.O=C(O)/C=C/C(=O)O [Example 31, 3-(benzo[b]thiophen-5-yl)-2-ethyl-5,6-dihydroimidazo[2,1-b]thiazole fumarate] | 7.46 | 26 | 145 to 150 |  |  |  |
| OCC1=C(c2cccc3sccc23)N2CCN=C2S1 [Example 3, [3-(benzo[b]thiophen-4-yl)-5,6-dihydroimidazo[2,1-b]thiazol-2-yl]methanol] | 6.76 | −3 | 145 to 149 |  |  |  |
| Cl.Fc1cccc2sc(C3=CSC4=NCCN34)cc12 [Example 5, 3-(4-fluorobenzo[b]thiophen-2-yl)-5,6-dihydroimidazo[2,1-b]thiazole hydrochloride] |  | 42 | 220 to 224 | 95 |  |  |
| Br.CC1=C(c2cc3cccc(Cl)c3s2)N2CCN=C2S1 [Example 20, 3-(7-chlorobenzo[b]thiophen-2-yl)-2-methyl-5,6-dihydroimidazo[2,1-b]thiazole hydrobromide] |  | 16 | 294 to 295 | 73 |  |  |
| CCC1=C(c2cccc3sccc23)N2CCN=C2S1.O=C(O)/C=C/C(=O)O [Example 25, 3-(benzo[b]thiophen-4-yl)-2-ethyl-5,6-dihydroimidazo[2,1-b]thiazole fumarate] | 6.77 |  | 171 to 173 |  | 6.60 |  |
| Br.COc1cccc2cc(C3=C(C)SC4=NCCN43)sc12 [Example 26, 3-(7-methoxybenzo[b]thiophen-2-yl)-2-methyl-5,6-dihydroimidazo[2,1-b]thiazole hydrobromide] |  | −11 | 270 to 272 | 64 |  |  |
| OCC1=C(c2cc3ccccc3s2)N2CCN=C2S1 [Example 15, [3-(benzo[b]thiophen-2-yl)-5,6-dihydroimidazo[2,1-b]thiazol-2-yl]methanol] |  | −15 | 138 to 140 | 75 |  |  |
| CSC1=C(c2cccc3sccc23)N2CCN=C2S1.O=C(O)/C=C/C(=O)O [Example 32, 3-(benzo[b]thiophen-4-yl)-2-(methylthio)-5,6-dihydroimidazo[2,1-b]thiazole fumarate] | 6.65 |  | 185 to 187 |  | 6.48 |  |
| Br.C=CCC1=C(c2cccc3sccc23)N2CCN=C2S1 [Example 36, 2-allyl-3-(benzo[b]thiophen-4-yl)-5,6-dihydroimidazo[2,1-b]thiazole hydrobromide] | 7.05 |  | 188 to 190 |  |  | 7.18 |
| CC1=C(c2cccc3ccsc23)N2CCN=C2S1.Cl [Example 23, 3-(benzo[b]thiophen-7-yl)-2-methyl-5,6-dihydroimidazo[2,1-b]thiazole hydrochloride] | 6.64 | −5 | 210 to 212 |  |  |  |
| Cc1cccc2sc(C3=CSC4=NCCN34)cc12.Cl [Example 14, 3-(4-methylbenzo[b]thiophen-2-yl)-5,6-dihydroimidazo[2,1-b]thiazole hydrochloride] |  | 9 | 238 to 245 | 96 |  |  |
| Br.Clc1cccc2sc(C3=CSC4=NCCN34)cc12 [Example 1, 3-(4-chlorobenzo[b]thiophen-2-yl)-5,6-dihydroimidazo[2,1-b]thiazole hydrobromide] |  | 7 | 273 to 274 | 97 |  |  |
| Br.CCC1=C(c2cccc3sccc23)N2CCN=C2S1 [Example 13, 3-(benzo[b]thiophen-4-yl)-2-ethyl-5,6-dihydroimidazo[2,1-b]thiazole hydrobromide] | 7.08 |  | 144 to 146 |  |  | 6.43 |
